Assay results reported in US5698547A, “Cephalosporin antibiotics” (Microcide Pharmaceuticals, Inc., priority 1995, dated 1997).
Converted amounts (≈) assume the structure as drawn. Where a name gives a salt, the structure may show the parent alone. One block for each compound: values may come before it.

Columns and labels:
[1] = tested on: methicillin-susceptible S. aureus strain ATCC 13709; assay: murine model for lethal bacteremic peritonitis; assay type: in vivo, female Swiss-Webster mice; settings: subcutaneous, 72 h
Experimental: Groups of 5 female Swiss-Webster mice (Simonsen, Gilroy, Calif.) each are challenged by the intraperitoneal (IP) route with tenfold increments of a bacterial inoculum. This permits calculation of the mean lethal dose (LD50) and the LD100. For preliminary evaluation of a new antibiotic, mice are challenged IP with an LD100 titer of bacteria. In two equal doses administered at the time of bacterial challenge and 2 hours later, groups of 10 mice each are treated subcutaneously with two-fold increments of the test drug and an antibiotic of known efficacy in mice and humans (i.e., positive control). Mice are observed for 72 h. Those alive at 72 h are considered long term survivors. The total drug dose in mg/kg that protects 50% of mice in a group from death is termed the mean protective dose (PD50). PD50 s are similarly determined for several pathogens. The quantitative endpoints for the new drug are then compared with those obtained with reference antibiotics.
Six ten-fold dilutions of inoculum suspended in 0.5 mL of sterilized 7% hog gastric mucin (Sigma) are injected IP in groups of 5 mice each. A control group of 5 mice receive mucin alone. Mice are observed for 72 h. Those alive at 72 h are considered long term survivors. The mean lethal dose (LD50) and 100% lethal dose (LD100) are determined by the probit test.
For antibiotic efficacy studies, mice are challenged IP with bacterial titers that will afford an LD100 for the test strain. In two equal doses administered at the time of bacterial challenge and 2 hours later, groups of 10 mice each are treated by the subcutaneous route (SC) with twofold increments of the test antibiotic; another group is treated similarly with a reference antibiotic of known efficacy in animals and man. Drug doses can range from 0.01 to 512 mg/kg. If the drug is poorly soluble, Tween 20 or propylene glycol will be employed to solubilize the drug. Animals are observed for 72 h. The 50% protective dose (PD50) is calculated in mg/kg by the probit method. The PD50 is the same as the 50% effective dose (ED50) and the 50% curative dose (CD50). Samples of blood from the hearts of all animals that die and from half the mice that survive are cultured on brain-heart infusion agar. Animals that received a protective dosage of the test drug will be alive at 72 h, although they may appear moderately ill to very ill during the observation period. […] Most of these mice will die within 6 to 48 h. Those alive at 72 h will be considered long term survivors.
(Compound numbers correspond to those in MIC tables; data
reported for challenge with methicillin-susceptible S. aureus

[2] = tested on: S. aureus Col (Meth^R) (lac^-); assay: MIC by agar dilution, S. aureus Col (Meth^R) (lac^-); assay type: cell-based; settings: Staphylococcus aureus; agar dilution; S. aureus Col (Meth^R) (lac^-); read-out: MIC
In short: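 Log-phase isolates were spot-inoculated at about 10^4 cfu onto Mueller-Hinton agar carrying duplicate two-fold compound levels, 128 μg/mL to ≤0.25 μg/mL, following NCCLS (1991). Plates were read after 16-20 h at 35°-36° C. The lowest growth-inhibiting concentration gave the MIC (μg/ml).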

Structure (SMILES): N=C(N)SCc1ccc(CC(=O)N[C@@H]2C(=O)N3C(C(=O)O)=C(Sc4ccccc4CSC(=N)N)CS[C@H]23)cc1 [Cmpd 97, (7R)-7-[((4-isothiouroniummethylphenyl)acetyl)amino]-3-(2-isothiouroniummethylphenylthio)-3-cephem-4-carboxylate, trifluoroacetic acid salt]
Mortality ([1]; dose 0.3125 mg/kg): 8/10 | Mortality ([1]; dose 0.625 mg/kg): 5/10 | Mortality ([1]; dose 1.25 mg/kg): 3/10 | Mortality ([1]; dose 2.5 mg/kg): 2/10 | Mortality ([1]; dose 5 mg/kg): 0/10 | MIC [2]: 2 µg/mL

Structure (SMILES): CC(C)N=C(NC(C)C)SCC(=O)N[C@@H]1C(=O)N2C(C(=O)O)=C(Sc3ccccc3CSC(=N)N)CS[C@H]12 [Cmpd 125, (7R)-7-[((N,N'-diisopropylisothiouronium)acetyl)amino]-3-(2-isothiouroniummethylphenylthio)-3-cephem-4-carboxylate, trifluoroacetic acid salt]
Mortality ([1]; dose 0.625 mg/kg): 9/10 | Mortality ([1]; dose 1.25 mg/kg): 10/10 | Mortality ([1]; dose 2.5 mg/kg): 7/10 | Mortality ([1]; dose 5 mg/kg): 4/9 | Mortality ([1]; dose 10 mg/kg): 7/10 | MIC [2]: 4 µg/mL

Structure (SMILES): CO/N=C(\C(=O)N[C@@H]1C(=O)N2C(C(=O)O)=C(COC(C)=O)CS[C@H]12)c1csc(N)n1 [Cefotaxime, (7R)-3-Acetoxymethyl-7-[(Z)-2-(aminothiazol-4-yl)-2-(methoxyimino)acetamido]-3-cephem-4-carboxylic acid, reference compound]
Mortality ([1]; dose 2.5 mg/kg): 8/10 | Mortality ([1]; dose 5 mg/kg): 5/10 | Mortality ([1]; dose 10 mg/kg): 3/10 | Mortality ([1]; dose 20 mg/kg): 4/10 | Mortality ([1]; dose 40 mg/kg): 1/10 | MIC [2]: > 32 µg/mL

MIC [2]: 4 µg/mL (≈ 7.32 µM)
Structure (SMILES): Cc1nnc(SCC(=O)N[C@@H]2C(=O)N3C(C(=O)O)=C(Sc4ccnn4-c4ccccc4)CS[C@H]23)s1 [Cmpd 118]
Mortality ([1]; dose 0.625 mg/kg): 8/10 | Mortality ([1]; dose 1.25 mg/kg): 6/10 | Mortality ([1]; dose 2.5 mg/kg): 8/10 | Mortality ([1]; dose 5 mg/kg): 4/10 | Mortality ([1]; dose 10 mg/kg): 2/10

MIC [2]: 4 µg/mL (≈ 6.69 µM)
Structure (SMILES): Nc1nc(/C(=N/OCC2CC2)C(=O)N[C@@H]2C(=O)N3C(C(=O)O)=C(Sc4ccnn4-c4ccccc4)CS[C@H]23)cs1 [Cmpd 108, (7R)-7-[(Z)-2-(2-aminothiazol-4-yl)-2-(cyclopropylmethyloxyimino)acetamido]-3-(1-N-phenylpyrazol-5-ylthio)-3-cephem-4-carboxylic acid]
Mortality ([1]; dose 0.625 mg/kg): 9/10 | Mortality ([1]; dose 1.25 mg/kg): 8/10 | Mortality ([1]; dose 2.5 mg/kg): 9/10 | Mortality ([1]; dose 5 mg/kg): 10/10 | Mortality ([1]; dose 10 mg/kg): 10/10

Structure (SMILES): N=C(N)SCc1ccccc1SC1=C(C(=O)O)N2C(=O)[C@@H](NC(=O)Cc3ccccc3CN)[C@H]2SC1 [Cmpd 101, (7R)-7-[((2-Aminomethylphenyl)acetyl)amino]-3-(2-isothiouroniummethylphenylthio)-3-cephem-4-carboxylate, trifluoroacetic acid salt]
Mortality ([1]; dose 0.625 mg/kg): 5/10 | Mortality ([1]; dose 1.25 mg/kg): 2/10 | Mortality ([1]; dose 2.5 mg/kg): 0/10 | Mortality ([1]; dose 5 mg/kg): 0/10 | Mortality ([1]; dose 10 mg/kg): 0/10 | MIC [2]: 4 µg/mL

Structure (SMILES): N#CCSCC(=O)N[C@@H]1C(=O)N2C(C(=O)O)=C(Sc3ccnn3-c3ccccc3)CS[C@H]12 [Cmpd 122, (7R)-7-[(cyanomethylthioacetyl)amino]-3-(1-N-phenylpyrazol-5-ylthio)-3-cephem-4-carboxylic acid]
Mortality ([1]; dose 0.625 mg/kg): 8/10 | Mortality ([1]; dose 1.25 mg/kg): 6/10 | Mortality ([1]; dose 2.5 mg/kg): 0/10 | Mortality ([1]; dose 5 mg/kg): 0/10 | Mortality ([1]; dose 10 mg/kg): 0/10 | MIC [2]: 4 µg/mL (≈ 8.2 µM)

Structure (SMILES): O=C(O)C1=C(Sc2ccnn2-c2ccccc2)CS[C@@H]2[C@H](NC(=O)C3SCCS3)C(=O)N12 [Cmpd 115, (7R)-7-[(2-dithiolanylcarbonyl)amino]-3-(1-N-phenylpyrazol-5-ylthio)-3-cephem-4-carboxylic acid]
Mortality ([1]; dose 0.625 mg/kg): 8/10 | Mortality ([1]; dose 1.25 mg/kg): 9/10 | Mortality ([1]; dose 2.5 mg/kg): 7/10 | Mortality ([1]; dose 5 mg/kg): 4/10 | Mortality ([1]; dose 10 mg/kg): 0/10 | MIC [2]: 4 µg/mL (≈ 7.89 µM)

MIC [2]: 2 µg/mL (≈ 3.8 µM)
Structure (SMILES): O=C(CSc1ccncc1)N[C@@H]1C(=O)N2C(C(=O)O)=C(Sc3ccnn3-c3ccccc3)CS[C@H]12 [Cmpd 110, (7R)-7-[(4-pyridylthioacetyl)amino]-3-(1-N-phenylpyrazol-5-ylthio)-3-cephem-4-carboxylic acid]
Mortality ([1]; dose 0.625 mg/kg): 8/10 | Mortality ([1]; dose 1.25 mg/kg): 7/10 | Mortality ([1]; dose 2.5 mg/kg): 8/10 | Mortality ([1]; dose 5 mg/kg): 6/10 | Mortality ([1]; dose 10 mg/kg): 0/10

Structure (SMILES): CCC(CC)O/N=C(\C(=O)N[C@@H]1C(=O)N2C(C(=O)O)=C(Sc3ccnn3-c3ccccc3)CS[C@H]12)c1csc(N)n1 [Cmpd 104, (7R)-7-[(Z)-2-(aminothiazol-4-yl)-2-(3-pentyloxyimino)acetamido]-3-(1-N-phenylpyrazol-5-ylthio)-3-cephem-4-carboxylic acid]
Mortality ([1]; dose 0.625 mg/kg): 6/10 | Mortality ([1]; dose 1.25 mg/kg): 10/10 | Mortality ([1]; dose 2.5 mg/kg): 8/10 | Mortality ([1]; dose 5 mg/kg): 8/10 | Mortality ([1]; dose 10 mg/kg): 9/10 | MIC [2]: 2 µg/mL (≈ 3.26 µM)

MIC [2]: 2 µg/mL (≈ 3.27 µM)
Structure (SMILES): Nc1nc(/C(=N/OC2CCCC2)C(=O)N[C@@H]2C(=O)N3C(C(=O)O)=C(Sc4ccnn4-c4ccccc4)CS[C@H]23)cs1 [Cmpd 89, (7R)-7-[(Z)-2-(aminothiazol-4-yl)-2-(cyclopentyloxyimino)acetamido]-3-(1-N-phenylpyrazol-5-ylthio)-3-cephem-4-carboxylic acid]
Mortality ([1]; dose 0.625 mg/kg): 9/10 | Mortality ([1]; dose 1.25 mg/kg): 9/10 | Mortality ([1]; dose 2.5 mg/kg): 9/10 | Mortality ([1]; dose 5 mg/kg): 8/10 | Mortality ([1]; dose 10 mg/kg): 8/10

MIC [2]: 2 µg/mL (≈ 3.97 µM)
Structure (SMILES): O=C(Cc1ccccc1)N[C@@H]1C(=O)N2C(C(=O)O)=C(Sc3cccnc3-c3ccccc3)CS[C@H]12 [Cmpd 81, (7R)-7-[(Phenylacetyl)amino]-3-(2-phenylpyridin-3-ylthio)-3-cephem-4-carboxylic acid]
Mortality ([1]; dose 2 mg/kg): 8/10 | Mortality ([1]; dose 4 mg/kg): 10/10 | Mortality ([1]; dose 8 mg/kg): 5/10 | Mortality ([1]; dose 16 mg/kg): 2/10

MIC [2]: 4 µg/mL (≈ 8.84 µM)
Structure (SMILES): N#Cc1ncccc1SC1=C(C(=O)O)N2C(=O)[C@@H](NC(=O)Cc3ccccc3)[C@H]2SC1 [Cmpd 102, (7R)-7-[(Phenylacetyl)amino]-3-(2-cyanopyridin-3-ylthio)-3-cephem-4-carboxylic acid]
Mortality ([1]; dose 0.3125 mg/kg): 10/10 | Mortality ([1]; dose 0.625 mg/kg): 8/10 | Mortality ([1]; dose 1.25 mg/kg): 7/10 | Mortality ([1]; dose 2.5 mg/kg): 5/10 | Mortality ([1]; dose 5 mg/kg): 0/10

Structure (SMILES): N#CCC(=O)N[C@@H]1C(=O)N2C(C(=O)O)=C(Sc3ccnn3-c3ccccc3)CS[C@H]12 [Cmpd 88, (7R)-7-[(Cyanoacetyl)amino]-3-(1-N-phenylpyrazol-5-ylthio)-3-cephem-4-carboxylic acid]
Mortality ([1]; dose 0.625 mg/kg): 2/10 | Mortality ([1]; dose 1.25 mg/kg): 1/10 | Mortality ([1]; dose 2.5 mg/kg): 0/10 | Mortality ([1]; dose 5 mg/kg): 0/10 | Mortality ([1]; dose 10 mg/kg): 0/10 | MIC [2]: 4 µg/mL (≈ 9.06 µM)

Structure (SMILES): O=C(CC1CC1)N[C@@H]1C(=O)N2C(C(=O)O)=C(Sc3ccnn3-c3ccccc3)CS[C@H]12 [Cmpd 107, (7R)-7-[(cyclopropylacetyl)amino]-3-(1-N-phenylpyrazol-5-ylthio)-3-cephem-4-carboxylic acid]
Mortality ([1]; dose 0.625 mg/kg): 8/10 | Mortality ([1]; dose 1.25 mg/kg): 6/10 | Mortality ([1]; dose 2.5 mg/kg): 5/10 | Mortality ([1]; dose 5 mg/kg): 0/10 | Mortality ([1]; dose 10 mg/kg): 0/10 | MIC [2]: 4 µg/mL (≈ 8.76 µM)

Structure (SMILES): O=C(O)C1=C(Sc2ccnn2-c2ccccc2)CS[C@@H]2[C@H](NC(=O)/C(=N\O)c3ccccc3)C(=O)N12 [Cmpd 130, (7R)-7-[(Z)-2-(Phenyl)-2-(hydroxyimino)acetamido]-3-(1-N-(phenyl)pyrazol-5-ylthio)-3-cephem-4-carboxylic acid]
Mortality ([1]; dose 0.625 mg/kg): 10/10 | Mortality ([1]; dose 1.25 mg/kg): 7/10 | Mortality ([1]; dose 2.5 mg/kg): 9/10 | Mortality ([1]; dose 5 mg/kg): 6/10 | Mortality ([1]; dose 10 mg/kg): 6/10 | MIC [2]: 2 µg/mL (≈ 3.83 µM)

Structure (SMILES): CSCC(=O)N[C@@H]1C(=O)N2C(C(=O)O)=C(Sc3ccccc3CSC(=N)N)CS[C@H]12 [Cmpd 127, (7R)-7-[(methylthioacetyl)amino]-3-(2-isothiouroniummethylphenylthio)-3-cephem-4-carboxylate, inner salt]
Mortality ([1]; dose 0.3125 mg/kg): 6/10 | Mortality ([1]; dose 0.625 mg/kg): 5/10 | Mortality ([1]; dose 1.25 mg/kg): 4/10 | Mortality ([1]; dose 2.5 mg/kg): 2/10 | Mortality ([1]; dose 5 mg/kg): 1/10 | MIC [2]: 4 µg/mL
